Source: US7928135B2, “Benzene, pyridine, and pyridazine derivatives” (Serenex, Inc., priority 2005, dated 2011)

Experiments:
[1] = tested on: HSP-90 (heat shock protein 90); experiment: Determination of affinity for HSP-90 (elution from purine affinity column, SDS-PAGE densitometry); format: binding; design: key: +++: very high; ++: high; +: moderate; conditions: elution of HSP-90 from purine affinity column with 20, 100 and 500 μM test compound
Protocol: Affinity of test compounds for HSP-90 was determined as follows: Protein mixtures obtained from a variety of organ tissues (for example: spleen, liver and lung) were reversibly bound to a purine affinity column to capture purine-binding proteins, especially HSP-90. The purine affinity column was washed several times, and then eluted with 20 μM, 100 μM, and 500 μM of test compound. Compounds of Formula I elute HP-90 in a dose-dependent manner vs. a control elution using dimethylsulfoxide. The elution profile of Formula I compounds was determined by 1-dimensional SDS polyacrylamide gel electrophoresis. Gels were stained with a fluorescent stain such as sypro ruby (a highly sensitive fluorescent protein stain that can readily detect less than 1 fmol of total protein, i.e., less than 0.04 ng for a 40 kDa protein) or silver nitrate. The gels were imaged using a standard flat bed gel imager and the amount of protein estimated by densitometry. The percent of HSP-90 protein eluted from the column at each concentration was determined and IC50 values were calculated from these estimates. The identity of a band containing HSP-90 was determined by protein sequencing using mass spectroscopy.
Compounds of the invention are inhibitors of HSP-90 (heat shock protein 90). Several exemplary compounds useful in the methods of the invention are listed below.

PC-3 cell proliferation = experiment: Cell proliferation assay (WST-1), PC-3; format: cell-based; conditions: Homo sapiens; PC-3 cells, WST-1 readout; read-out: inhibitory activity against PC-3 cell proliferation (IC50 range)
Protocol: A panel of cancer cell lines was obtained from the DCTP Tumor Repository, National Cancer Institute (Frederick, Md.) or ATCC (Rockville, Md.). Cell cultures were maintained in Hyclone RPMI 1640 medium (Logan, Utah) supplemented with 10% fetal bovine serum and 20 mM HEPES buffer, final pH 7.2, at 37° C. with a 5% CO2 atmosphere. Cultures were maintained at sub-confluent densities. Human umbilical vein endothelial cells (HUVEC) were purchased from Clonetics, a division of Cambrex (Walkersville, Md.). Cultures were established from cryopreserved stocks using Clonetics EGM-2 medium supplemented with 20 mM HEPES, final pH 7.2, at 37° C. with a 5% CO2 atmosphere.
For proliferation assays, cells were seeded with the appropriate medium into 96 well plates at 1,000-2,500 cells per well, depending on the cell line, and were incubated overnight. The following day, test compound, DMSO solution (negative control), or Actinomycin D (positive control) was added to the appropriate wells as 10× concentrated stocks prepared in phosphate buffered saline. The cell plates were then incubated for an additional 2-5 days, depending on the cell line, to allow proliferation to occur. To measure cell density, 50 μL of WST-1 solution (Roche Applied Science, Ind.) diluted 1:5 in phosphate buffered saline was added to each well, and the cells incubated for an additional 1-5 hrs., again depending on the cell line. Optical density was determined for each well at […] using a Tecan GeniosPro plate reader (RTP, NC). The percentage of cell growth was determined by comparing the cell growth in the presence of test compounds to the cells treated with DMSO vehicle (control, 100% growth) and cells treated with Actinomycin D (10 μM, 0% growth). […]

CCCCSc1cc(-n2nc(C)c3c2CC(C)(C)CC3=O)ccc1C(N)=O [Compound 103, 2-(butylthio)-4-(3,6,6-trimethyl-4-oxo-4,5,6,7-tetrahydro-1H-indazol-1-yl)benzamide]
relative binding affinity to HSP-90 [1]: ++
IC50 (PC-3 cell proliferation): 0.5 to 5 µM

Cc1cn(-c2ccc(C(N)=O)c(N3CCN(C)CC3)c2)c2c1C(=O)CC(C)(C)C2 [Compound 99, 2-(4-methylpiperazin-1-yl)-4-(3,6,6-trimethyl-4-oxo-4,5,6,7-tetrahydro-1H-indol-1-yl)benzamide]
relative binding affinity to HSP-90 [1]: ++
IC50 (PC-3 cell proliferation): 5 to 50 µM

Cc1cc2c(n1-c1ccc(C(N)=O)c(NN3CCOCC3)c1)CC(C)(C)CC2=O [Compound 94, 2-(morpholin-4-ylamino)-4-(2,6,6-trimethyl-4-oxo-4,5,6,7-tetrahydro-1H-indol-1-yl)benzamide]
relative binding affinity to HSP-90 [1]: ++
IC50 (PC-3 cell proliferation): 5 to 50 µM

Cc1cn(-c2ccc(C(N)=O)c(NC(N)=O)c2)c2c1C(=O)CC(C)(C)C2 [Compound 55, 1-(2-carbamoyl-5-(3,6,6-trimethyl-4-oxo-4,5,6,7-tetrahydroindol-1-yl)phenyl)urea]
relative binding affinity to HSP-90 [1]: ++
IC50 (PC-3 cell proliferation): 0.5 to 5 µM

CCCCOc1cc(C(N)=O)ccc1-n1cc(C)c2c1CC(C)(C)CC2=O [Compound 53, 3-butoxy-4-(3,6,6-trimethyl-4-oxo-4,5,6,7-tetrahydroindol-1-yl)benzamide]
relative binding affinity to HSP-90 [1]: ++
IC50 (PC-3 cell proliferation): 5 to 50 µM

Cc1cc2c(n1-c1ccc(C(N)=O)c(-c3ccncc3)c1)CC(C)(C)CC2=O [Compound 77, 2-pyridin-4-yl-4-(2,6,6-trimethyl-4-oxo-4,5,6,7-tetrahydro-1H-indol-1-yl)benzamide]
relative binding affinity to HSP-90 [1]: ++
IC50 (PC-3 cell proliferation): 5 to 50 µM

Cc1nn(-c2ccc(C(N)=O)c(NC(CCO)CCO)c2)c2c1C(=O)CC(C)(C)C2 [Compound 121, 2-{[3-hydroxy-1-(2-hydroxyethyl)propyl]amino}-4-(3,6,6-trimethyl-4-oxo-4,5,6,7-tetrahydro-1H-indazol-1-yl)benzamide]
relative binding affinity to HSP-90 [1]: +++
IC50 (PC-3 cell proliferation): 0.5 to 5 µM

Cc1nn(-c2ccc(C(N)=O)c(NC3CCC3)c2)c2c1C(=O)CC(C)(C)C2 [Compound 117, 2-(cyclobutylamino)-4-(3,6,6-trimethyl-4-oxo-4,5,6,7-tetrahydro-1H-indazol-1-yl)benzamide]
relative binding affinity to HSP-90 [1]: +++
IC50 (PC-3 cell proliferation): < 0.5 µM

COc1cc(Nc2cc(-n3c(C)cc4c3CC(C)(C)CC4=O)ccc2C(N)=O)cc(OC)c1OC [Compound 76, 2-[(3,4,5-trimethoxyphenyl)amino]-4-(2,6,6-trimethyl-4-oxo-4,5,6,7-tetrahydro-1H-indol-1-yl)benzamide]
relative binding affinity to HSP-90 [1]: +++
IC50 (PC-3 cell proliferation): 0.5 to 5 µM

Cc1cc2c(n1-c1ccc(C(N)=O)cc1-c1ccsc1)CC(C)(C)CC2=O [Compound 70, 3-(3-thienyl)-4-(2,6,6-trimethyl-4-oxo-4,5,6,7-tetrahydro-1H-indol-1-yl)benzamide]
relative binding affinity to HSP-90 [1]: +
IC50 (PC-3 cell proliferation): 5 to 50 µM

CC(=O)Nc1cc(-n2cc(C)c3c2CC(C)(C)CC3=O)ccc1C(N)=O [Compound 98, 2-(acetylamino)-4-(3,6,6-trimethyl-4-oxo-4,5,6,7-tetrahydro-1H-indol-1-yl)benzamide]
relative binding affinity to HSP-90 [1]: +++
IC50 (PC-3 cell proliferation): < 0.5 µM

CC1(C)CC(=O)c2c(C(F)(F)F)nn(-c3ccc(C(N)=O)c(NCCNS(C)(=O)=O)c3)c2C1 [Compound 133, 4-[6,6-dimethyl-4-oxo-3-(trifluoromethyl)-4,5,6,7-tetrahydro-1H-indazol-1-yl]-2-({2-[(methylsulfonyl)amino]ethyl}amino)benzamide]
relative binding affinity to HSP-90 [1]: ++
IC50 (PC-3 cell proliferation): 5 to 50 µM
